Tested on: 292921-168-R-J2-PDC KRAS tumor spheroid viability
Experiment: Anticancer human tumor 292921-168-R-J2-PDC patient-derived pancreatic carcinoma cell line growth inhibition [KRAS2]
Settings: spheroids with HUVEC and MSC; for viability, T/C: stronger effect = lower value
Procedure, shortened: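 KRAS-mutant tumor cells were grown as spheroids with HUVEC endothelial cells and human MSCs as stroma. Targeted agents were tested alone and with KRAS pathway inhibitors. Doses started at or near clinical Cmax, or 10 microM, descending half-log.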

[1] = curve of first compound, second compound 0.0316 µM
[2] = curve of first compound, second compound 0.1 µM
[3] = curve of first compound, second compound 0.316 µM
[4] = curve of first compound, second compound 1 µM
[5] = curve of first compound, second compound 3.16 µM
[6] = second compound 0.0316 µM, first compound 0.0316 µM
[7] = second compound 0.0316 µM, first compound 0.1 µM
[8] = second compound 0.0316 µM, first compound 0.316 µM
[9] = second compound 0.0316 µM, first compound 1 µM
[10] = second compound 0.0316 µM, first compound 3.16 µM
[11] = second compound 0.1 µM, first compound 0.0316 µM
[12] = second compound 0.1 µM, first compound 0.1 µM
[13] = second compound 0.1 µM, first compound 0.316 µM
[14] = second compound 0.1 µM, first compound 1 µM
[15] = second compound 0.1 µM, first compound 3.16 µM
[16] = second compound 0.316 µM, first compound 0.0316 µM
[17] = second compound 0.316 µM, first compound 0.1 µM
[18] = second compound 0.316 µM, first compound 0.316 µM
[19] = second compound 0.316 µM, first compound 1 µM
[20] = second compound 0.316 µM, first compound 3.16 µM
[21] = second compound 1 µM, first compound 0.0316 µM
[22] = second compound 1 µM, first compound 0.1 µM
[23] = second compound 1 µM, first compound 0.316 µM
[24] = second compound 1 µM, first compound 1 µM
[25] = second compound 1 µM, first compound 3.16 µM
[26] = second compound 3.16 µM, first compound 0.0316 µM
[27] = second compound 3.16 µM, first compound 0.1 µM
[28] = second compound 3.16 µM, first compound 0.316 µM
[29] = second compound 3.16 µM, first compound 1 µM
[30] = second compound 3.16 µM, first compound 3.16 µM
[31] = curve of first compound, second compound 10 µM
[32] = second compound 0.1 µM, first compound 10 µM
[33] = second compound 0.316 µM, first compound 10 µM
[34] = second compound 1 µM, first compound 10 µM
[35] = second compound 3.16 µM, first compound 10 µM
[36] = second compound 10 µM, first compound 0.0316 µM
[37] = second compound 10 µM, first compound 0.1 µM
[38] = second compound 10 µM, first compound 0.316 µM
[39] = second compound 10 µM, first compound 1 µM
[40] = second compound 10 µM, first compound 3.16 µM
[41] = second compound 10 µM, first compound 10 µM
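Further: drug exposure lasted seven days after spheroids formed for three days.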
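Wherever viability, T/C is given: percent of DMSO vehicle control viability which is 100%.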

| SMILES | IC50 [2] [nM] | IC50 [3] [nM] | IC50 [4] [nM] | IC50 [5] [nM] | viability, T/C [11] [%] | viability, T/C [12] [%] | viability, T/C [13] [%] | viability, T/C [14] [%] | viability, T/C [15] [%] | viability, T/C [16] [%] | viability, T/C [17] [%] | viability, T/C [18] [%] | viability, T/C [19] [%] | viability, T/C [20] [%] | viability, T/C [21] [%] | viability, T/C [22] [%] | viability, T/C [23] [%] | viability, T/C [24] [%] | viability, T/C [25] [%] | viability, T/C [26] [%] | other results |
| --- | --- | --- | --- | --- | --- | --- | --- | --- | --- | --- | --- | --- | --- | --- | --- | --- | --- | --- | --- | --- | --- |
| CC1COCCN1c1cc(-c2ccnn2C)c2ccnc(-c3ccn[nH]3)c2n1 (configuration not stated) + C=CC(=O)N1CCN(c2nc(OCC3CCCN3C)nc3c2CCN(c2cccc4cccc(C)c24)C3)CC1CC#N | < 10 | < 10 | < 10 | < 10 | 14 | 9.02 | 9.07 | 11 | 11.7 | 11 | 7.47 | 8.07 | 9.3 | 10.8 | 6.29 | 5.9 | 6.42 | 6.98 | 7.65 | 0.09 | IC50 [1]: < 10 nM; viability, T/C (second compound 0.0316 µM, first compound 0.01 µM): 38.6%; viability, T/C [6]: 16.4%; viability, T/C [7]: 11.5%; viability, T/C [8]: 10%; viability, T/C [9]: 11.9%; viability, T/C [10]: 12.6%; viability, T/C (second compound 0.1 µM, first compound 0.01 µM): 33.6%; viability, T/C (second compound 0.316 µM, first compound 0.01 µM): 22.6%; viability, T/C (second compound 1 µM, first compound 0.01 µM): 8.66%; viability, T/C (second compound 3.16 µM, first compound 0.01 µM): 0.1%; viability, T/C [27]: 0.08%; viability, T/C [28]: 0.09%; viability, T/C [29]: 0.27%; viability, T/C [30]: 0.15% |
| CC1COCCN1c1cc(-c2ccnn2C)c2ccnc(-c3ccn[nH]3)c2n1 (configuration not stated) | – | – | – | – | – | – | – | – | – | – | – | – | – | – | – | – | – | – | – | – | viability, T/C (compound 0.01 µM): 48% [middle of 5 runs]; viability, T/C (compound 0.0316 µM): 23.6% [middle of 5 runs]; viability, T/C (compound 0.1 µM): 16.1% [middle of 5 runs]; viability, T/C (compound 0.316 µM): 14.2% [middle of 5 runs]; viability, T/C (compound 1 µM): 14.4% [middle of 5 runs]; viability, T/C (compound 3.16 µM): 16% [middle of 5 runs]; IC50 (curve of compound): < 10 nM |
| COC(=O)c1ccc2c(C(=Nc3ccc(N(C)C(=O)CN4CCN(C)CC4)cc3)c3ccccc3)c(O)[nH]c2c1 + CNCc1ccccc1-c1csc(C(C)Nc2nc(C)nc3cc(OC)c(OC)cc23)c1 | 538 | 516 | 407 | < 31.6 | 101 | 92.9 | 64.5 | 31.9 | 10.4 | 90.5 | 88.1 | 64.2 | 28.8 | 13.5 | 106 | 88.3 | 52.5 | 32.1 | 4.65 | 0.14 | IC50 [31]: < 31.6 nM; viability, T/C [32]: 0.5%; viability, T/C [33]: 0.68%; viability, T/C [34]: 0.52%; viability, T/C [27]: 0.23%; viability, T/C [28]: 0.19%; viability, T/C [29]: 0.33%; viability, T/C [30]: 0.3%; viability, T/C [35]: 0.68%; viability, T/C [36]: 0.2%; viability, T/C [37]: 0.22%; viability, T/C [38]: 0.19%; viability, T/C [39]: 0.16%; viability, T/C [40]: 0.13%; viability, T/C [41]: 0.35% |
| COc1cc2nccc(Oc3ccc(NC(=O)C4(C(=O)Nc5ccc(F)cc5)CC4)cc3)c2cc1OC + C=CC(=O)N1CCN(c2nc(OCC3CCCN3C)nc3c2CCN(c2cccc4cccc(C)c24)C3)CC1CC#N | 1710 | 1310 | < 31.6 | < 31.6 | 89.8 | 83.9 | 84.4 | 62.5 | 35.1 | 82 | 83.2 | 82.4 | 55.5 | 29.2 | 45.6 | 39 | 38.2 | 22.9 | 14.7 | 0.34 | IC50 [1]: 2060 nM; viability, T/C [6]: 100%; viability, T/C [7]: 90.4%; viability, T/C [8]: 94.2%; viability, T/C [9]: 77.1%; viability, T/C [10]: 33.9%; viability, T/C (second compound 0.0316 µM, first compound 10 µM): 15.6%; viability, T/C [32]: 20.6%; viability, T/C [33]: 18.4%; viability, T/C [34]: 9.84%; viability, T/C [27]: 0.83%; viability, T/C [28]: 0.26%; viability, T/C [29]: 0.12%; viability, T/C [30]: 0.1%; viability, T/C [35]: 0.15% |
| CC1OCC2(CCN(c3cnc(Sc4ccnc(N)c4Cl)c(N)n3)CC2)C1N (configuration not stated) + CNCc1ccccc1-c1csc(C(C)Nc2nc(C)nc3cc(OC)c(OC)cc23)c1 | 296 | 203 | 43.5 | < 31.6 | 77 | 61.6 | 50 | 37.5 | 34.6 | 77.4 | 56.2 | 44.7 | 37.4 | 31.8 | 52.5 | 43.2 | 37.8 | 29.3 | 26 | 0.1 | IC50 [31]: < 31.6 nM; viability, T/C [32]: 26.7%; viability, T/C [33]: 24.8%; viability, T/C [34]: 22.2%; viability, T/C [27]: 0.09%; viability, T/C [28]: 0.07%; viability, T/C [29]: 0.06%; viability, T/C [30]: 0.05%; viability, T/C [35]: 0.33%; viability, T/C [36]: 0.09%; viability, T/C [37]: 0.19%; viability, T/C [38]: 0.08%; viability, T/C [39]: 0.09%; viability, T/C [40]: 0.09%; viability, T/C [41]: 0.15% |
| CC1OCC2(CCN(c3cnc(Sc4ccnc(N)c4Cl)c(N)n3)CC2)C1N (configuration not stated) + COc1cc2nc(C)nc(NC(C)c3cc(N)cc(C(F)(F)F)c3)c2cc1OC1CCOC1 | 242 | 127 | 102 | 53 | 70.2 | 60.1 | 46.6 | 36.8 | 30.2 | 69.2 | 53 | 39.9 | 33.1 | 29.2 | 62.4 | 51 | 36.1 | 31.1 | 26.3 | 56.1 | IC50 [31]: < 31.6 nM; viability, T/C [32]: 26.9%; viability, T/C [33]: 26.1%; viability, T/C [34]: 24.3%; viability, T/C [27]: 42.4%; viability, T/C [28]: 33.5%; viability, T/C [29]: 27.5%; viability, T/C [30]: 23.8%; viability, T/C [35]: 21.7%; viability, T/C [36]: 23.1%; viability, T/C [37]: 20.2%; viability, T/C [38]: 17.4%; viability, T/C [39]: 14.2%; viability, T/C [40]: 15.4%; viability, T/C [41]: 13.2% |

Reference: PubChem BioAssay AID1963870 (Molecular Pharmacology Branch, DTP, NCI, 2024)
